This data set in a line: activity coefficient (dimensionless); of the first substance listed, at infinite dilution; xn = mol fraction of the nth substance listed. The conditions noted are these: 100 kPa, Liquid, Chromatography, x1 = 0.

Numbers after ± are expanded uncertainties.

Here are results for 31 compounds from the NIST ThermoML archive (doi:10.1021/acs.jced.5b00980).

Take `Cc1ccc(C)cc1` [1,4-dimethylbenzene] + CCCC[P+](CC)(CCCC)CCCC.CCOP(=O)([O-])OCC: the activity coefficient is, setting by setting: (328.15 K) 1.64 ± 0.11; (338.15 K) 1.61 ± 0.11; (348.15 K) 1.59 ± 0.11; (358.15 K) 1.57 ± 0.1; (368.15 K) 1.55 ± 0.1.
Consider `C#CCCCCC` [1-heptyne] + CCCC[P+](CC)(CCCC)CCCC.CCOP(=O)([O-])OCC, for which the activity coefficient worked out at 1.01 ± 0.06 (328.15 K); 1.05 ± 0.07 (338.15 K); 1.09 ± 0.07 (348.15 K); 1.13 ± 0.07 (358.15 K); 1.17 ± 0.07 (368.15 K).
Consider `CC(C)=O` [acetone] + CCCC[P+](CC)(CCCC)CCCC.CCOP(=O)([O-])OCC, for which the activity coefficient (328.15 K) is 0.835 ± 0.054; the activity coefficient (338.15 K) was found to be 0.827 ± 0.053; the activity coefficient (348.15 K) was 0.822 ± 0.053; the activity coefficient (358.15 K) amounted to 0.814 ± 0.053; the activity coefficient (368.15 K) came to 0.809 ± 0.052.
In the case of `CCC(=O)CC` [pentan-3-one] + CCCC[P+](CC)(CCCC)CCCC.CCOP(=O)([O-])OCC, the activity coefficient (328.15 K) was found to be 1.02 ± 0.06; the activity coefficient (338.15 K) came out at 1.02 ± 0.06; the activity coefficient (348.15 K) was determined as 1.02 ± 0.06; the activity coefficient (358.15 K) came to 1.02 ± 0.06; the activity coefficient (368.15 K) was 1.02 ± 0.06.
For the compound `CCOCC` [diethyl ether] + CCCC[P+](CC)(CCCC)CCCC.CCOP(=O)([O-])OCC, the activity coefficient was 1.79 ± 0.12 (328.15 K); 1.77 ± 0.12 (338.15 K); 1.75 ± 0.12 (348.15 K); 1.73 ± 0.12 (358.15 K); 1.71 ± 0.11 (368.15 K).
`C1CCCC1` [cyclopentane] + CCCC[P+](CC)(CCCC)CCCC.CCOP(=O)([O-])OCC: the activity coefficient by setting is: (328.15 K) 1.83 ± 0.12; (338.15 K) 1.8 ± 0.12; (348.15 K) 1.77 ± 0.12; (358.15 K) 1.74 ± 0.12; (368.15 K) 1.71 ± 0.11.
As to `CC(C)OC(C)C` [diisopropyl ether] + CCCC[P+](CC)(CCCC)CCCC.CCOP(=O)([O-])OCC, the activity coefficient reads like this: (328.15 K) 2.82 ± 0.19; (338.15 K) 2.75 ± 0.19; (348.15 K) 2.69 ± 0.18; (358.15 K) 2.65 ± 0.18; (368.15 K) 2.59 ± 0.18.
As to `CCC(C)(C)OC` [2-methoxy-2-methylbutane] + CCCC[P+](CC)(CCCC)CCCC.CCOP(=O)([O-])OCC, the activity coefficient runs as follows: (328.15 K) 2.09 ± 0.14; (338.15 K) 2.07 ± 0.14; (348.15 K) 2.05 ± 0.14; (358.15 K) 2.02 ± 0.14; (368.15 K) 2.01 ± 0.14.
Regarding `CC#N` [acetonitrile] + CCCC[P+](CC)(CCCC)CCCC.CCOP(=O)([O-])OCC, the activity coefficient was determined as 0.464 ± 0.036 (328.15 K); 0.465 ± 0.036 (338.15 K); 0.467 ± 0.036 (348.15 K); 0.468 ± 0.037 (358.15 K); 0.469 ± 0.037 (368.15 K).
For `CCO` [ethanol] + CCCC[P+](CC)(CCCC)CCCC.CCOP(=O)([O-])OCC, the activity coefficient by setting is: (338.15 K) 0.035; (348.15 K) 0.038; (358.15 K) 0.042; (368.15 K) 0.045.
As for `C1CCCCCCC1` [cyclooctane] + CCCC[P+](CC)(CCCC)CCCC.CCOP(=O)([O-])OCC, the activity coefficient runs as follows: (328.15 K) 2.82 ± 0.19; (338.15 K) 2.74 ± 0.19; (348.15 K) 2.69 ± 0.18; (358.15 K) 2.63 ± 0.18; (368.15 K) 2.57 ± 0.17.
Regarding `CCC(C)CC` [3-methylpentane] + CCCC[P+](CC)(CCCC)CCCC.CCOP(=O)([O-])OCC, the activity coefficient is, setting by setting: (328.15 K) 3.17 ± 0.22; (338.15 K) 3.12 ± 0.21; (348.15 K) 3.07 ± 0.21; (358.15 K) 3.02 ± 0.21; (368.15 K) 2.98 ± 0.2.
Consider `C=Cc1ccccc1` [styrene] + CCCC[P+](CC)(CCCC)CCCC.CCOP(=O)([O-])OCC, for which the activity coefficient runs as follows: (328.15 K) 0.971 ± 0.061; (338.15 K) 0.975 ± 0.061; (348.15 K) 0.98 ± 0.061; (358.15 K) 0.983 ± 0.062; (368.15 K) 0.987 ± 0.062.
Turning to `c1ccncc1` [pyridine] + CCCC[P+](CC)(CCCC)CCCC.CCOP(=O)([O-])OCC, the activity coefficient (328.15 K) was 0.544 ± 0.04; the activity coefficient (338.15 K) is 0.545 ± 0.04; the activity coefficient (348.15 K) was 0.548 ± 0.04; the activity coefficient (358.15 K) was 0.549 ± 0.04; the activity coefficient (368.15 K) was found to be 0.55 ± 0.04.
For `C=CCCCCC` [1-heptene] + CCCC[P+](CC)(CCCC)CCCC.CCOP(=O)([O-])OCC the same measures were 3.06 ± 0.21, 3.01 ± 0.2, 2.97 ± 0.2, 2.93 ± 0.2 and 2.89 ± 0.2.
As for `C1CCOC1` [tetrahydrofuran] + CCCC[P+](CC)(CCCC)CCCC.CCOP(=O)([O-])OCC, the activity coefficient was 0.938 ± 0.059 (328.15 K); 0.926 ± 0.059 (338.15 K); 0.919 ± 0.058 (348.15 K); 0.907 ± 0.058 (358.15 K); 0.899 ± 0.057 (368.15 K).
With `COC(C)(C)C` [2-methoxy-2-methylpropane] + CCCC[P+](CC)(CCCC)CCCC.CCOP(=O)([O-])OCC, the activity coefficient is, setting by setting: (328.15 K) 1.89 ± 0.13; (338.15 K) 1.86 ± 0.13; (348.15 K) 1.84 ± 0.12; (358.15 K) 1.82 ± 0.12; (368.15 K) 1.8 ± 0.12.
For the compound `c1ccsc1` [thiophene] + CCCC[P+](CC)(CCCC)CCCC.CCOP(=O)([O-])OCC, the activity coefficient runs as follows: (328.15 K) 0.58 ± 0.041; (338.15 K) 0.587 ± 0.042; (348.15 K) 0.595 ± 0.042; (358.15 K) 0.601 ± 0.042; (368.15 K) 0.607 ± 0.042.
Turning to `CCC(C)(C)C` [2,2-dimethylbutane] + CCCC[P+](CC)(CCCC)CCCC.CCOP(=O)([O-])OCC, the activity coefficient came out at 3.34 ± 0.23 (328.15 K); 3.27 ± 0.22 (338.15 K); 3.2 ± 0.22 (348.15 K); 3.14 ± 0.21 (358.15 K); 3.08 ± 0.21 (368.15 K).
For `CCCC(=O)CC` [3-hexanone] + CCCC[P+](CC)(CCCC)CCCC.CCOP(=O)([O-])OCC, the activity coefficient by setting is: (328.15 K) 1.23 ± 0.08; (338.15 K) 1.21 ± 0.08; (348.15 K) 1.21 ± 0.08; (358.15 K) 1.2 ± 0.08; (368.15 K) 1.2 ± 0.08.
As to `CCCCC` [pentane] + CCCC[P+](CC)(CCCC)CCCC.CCOP(=O)([O-])OCC, the activity coefficient is, setting by setting: (328.15 K) 2.91 ± 0.2; (338.15 K) 2.85 ± 0.19; (348.15 K) 2.8 ± 0.19; (358.15 K) 2.75 ± 0.19; (368.15 K) 2.7 ± 0.18.
Consider `CO` [methanol] + CCCC[P+](CC)(CCCC)CCCC.CCOP(=O)([O-])OCC, for which the activity coefficient by setting is: (338.15 K) 0.022; (348.15 K) 0.025; (358.15 K) 0.028; (368.15 K) 0.03.
On to `CC1CCCCC1` [methylcyclohexane] + CCCC[P+](CC)(CCCC)CCCC.CCOP(=O)([O-])OCC, for which the activity coefficient by setting is: (328.15 K) 2.62 ± 0.18; (338.15 K) 2.57 ± 0.17; (348.15 K) 2.52 ± 0.17; (358.15 K) 2.48 ± 0.17; (368.15 K) 2.44 ± 0.17.
In the case of `Cc1cccc(C)c1` [1,3-dimethylbenzene] + CCCC[P+](CC)(CCCC)CCCC.CCOP(=O)([O-])OCC, the activity coefficient (328.15 K) worked out at 1.7 ± 0.11; the activity coefficient (338.15 K) came out at 1.67 ± 0.11; the activity coefficient (348.15 K) amounted to 1.64 ± 0.11; the activity coefficient (358.15 K) was determined as 1.61 ± 0.11; the activity coefficient (368.15 K) came to 1.59 ± 0.11.
As for `c1ccccc1` [benzene] + CCCC[P+](CC)(CCCC)CCCC.CCOP(=O)([O-])OCC, the activity coefficient runs as follows: (328.15 K) 0.871 ± 0.056; (338.15 K) 0.863 ± 0.055; (348.15 K) 0.855 ± 0.055; (358.15 K) 0.847 ± 0.054; (368.15 K) 0.84 ± 0.054.
Take `C=CCCCC` [hex-1-ene] + CCCC[P+](CC)(CCCC)CCCC.CCOP(=O)([O-])OCC: the activity coefficient was found to be 2.59 ± 0.18 (328.15 K); 2.54 ± 0.17 (338.15 K); 2.49 ± 0.17 (348.15 K); 2.44 ± 0.17 (358.15 K); 2.4 ± 0.16 (368.15 K).
For the compound `O` [water] + CCCC[P+](CC)(CCCC)CCCC.CCOP(=O)([O-])OCC, the activity coefficient runs as follows: (328.15 K) 0.101 ± 0.03; (338.15 K) 0.105 ± 0.03; (348.15 K) 0.109 ± 0.03; (358.15 K) 0.112 ± 0.03; (368.15 K) 0.116 ± 0.03.
For `C#CCCCC` [1-hexyne] + CCCC[P+](CC)(CCCC)CCCC.CCOP(=O)([O-])OCC, in that order: 0.849 ± 0.054, 0.893 ± 0.057, 0.936 ± 0.059, 0.979 ± 0.061 and 1.02 ± 0.06.
With `CCCC(C)=O` [pentan-2-one] + CCCC[P+](CC)(CCCC)CCCC.CCOP(=O)([O-])OCC, the activity coefficient is 1.03 ± 0.06 (328.15 K); 1.03 ± 0.06 (338.15 K); 1.02 ± 0.06 (348.15 K); 1.02 ± 0.06 (358.15 K); 1.01 ± 0.06 (368.15 K).
With `C1=CCCCC1` [cyclohexene] + CCCC[P+](CC)(CCCC)CCCC.CCOP(=O)([O-])OCC, the activity coefficient (328.15 K) turned out to be 1.72 ± 0.12; the activity coefficient (338.15 K) was determined as 1.69 ± 0.11; the activity coefficient (348.15 K) was 1.67 ± 0.11; the activity coefficient (358.15 K) was determined as 1.65 ± 0.11; the activity coefficient (368.15 K) was determined as 1.63 ± 0.11.
For `CCCCCC` [hexane] + CCCC[P+](CC)(CCCC)CCCC.CCOP(=O)([O-])OCC the same measures were 3.4 ± 0.23, 3.33 ± 0.23, 3.26 ± 0.22, 3.21 ± 0.22 and 3.15 ± 0.21.
